“Also recorded” adds a separate entry of the source. Ends that are not written are not given here.
Key:
[1] = target: complementary peptides EIAALEK-EIAALEK-EIAALEK / KIAALKE-KIAALKE-KIAALKE; conditions: heterodimer (78); read-out: dissociation constant; cited from earlier work
[2] = system: TRPV3-EGFP; test: whole-cell patch clamp recordings, HEK293T cells transiently transfected with TRPV3-EGFP; type: cell-based, Mouse; conditions: 100 μM 2APB
Excerpt: (§1) Cloning of TRPV3, TRPV1 and P2X2 into the EGFP-cc and EGFP-barstar vectors. The multiple cloning site (MCS) 3′ of the EGFP-C1 vector is not affected by the heptad repeat or barstar insertion described above, i.e., the restriction sites at the 3 prime end of EGFP are identical to the original EGFP-C1 clone. This MCS was used to clone each of three different ion channel subunits in-frame with the EGFP-heptad repeat module or EGFP-barstar module that had been inserted into the EGFP-C1 vector. Mouse TRPV3 cDNA was amplified either from total mouse cDNA or from plasmids containing the appropriate subunit sequence by PCR using the following primers: […]
(§2) Transient transfection of COS and HEK cells. COS or HEK cells were transfected using Lipofectamine 2000 (Invitrogen) according to the manufacture's protocol. In brief, 2 μg of the respective DNA plasmid were incubated for 30 min with 6 μl of Lipofectamine in 200 μl of Optimem medium (Gibco) at room temperature. Cells were incubated with the DNA-Lipofectamine complex for 3 h at 37 degrees Celsius in 500 μl Optimem medium. Afterwards the medium was replaced with DMEM containing 10% FCS. Cells were assayed for expression and activity of the engineered ion channels 24-48 h after transfection.
(§3) Characterization of functional activity of engineered ion channel subunits. […]

[3] = system: TRPV3-EGFP-cc; test: whole-cell patch clamp recordings, HEK293T cells transiently transfected with TRPV3-EGFP-cc; type: cell-based, Mouse; conditions: 100 μM 2APB
Excerpt: as §1, §2, §3

[4] = system: COS cells; test: FRET-based calcium sensing inside living COS cells (quantum dots + Calcium Crimson); type: cell-based; conditions: 405 nm laser; COS cells with internalized quantum dots and Calcium Crimson
Description: Quantum dot nanoparticles with an absorption peak at ˜405 nm and an emission peak at ˜580 nm (“Birch Yellow, Type 2”, Evident Corp.) were internalized by COS cells that had been previously loaded with a calcium-sensitive dye with absorption ˜580 nm, emission ˜620 nm (Calcium Crimson; Invitrogen N. C-3018). Dye loading was performed according to the directions of the manufacturer, and electroporation was used to enhance nanoparticle uptake. Live cells were illuminated with a 405 nm laser and emission from the sample was collected through a narrow bandgap filter centered around 620 nm. […] Since the calcium-sensitive dye cannot be excited by the 405 nm laser, their activation is due to FRET from the nanoparticles. The image is a snapshot from a movie taken at mid-plane section of a cell via confocal microscopy.

[5] = system: EGFP-cc; test: pull-down of EGFP-cc from cell lysate by functionalized nanoparticles, Western blot; type: binding; conditions: for pull-down / binding of EGFP-cc: lysate of cells expressing EGFP-cc, anti-EGFP Western blot
Excerpt: Nanoparticle synthesis and conjugation. Dye-doped silica nanoparticles containing the fluorescent dye tris (2,2′-bipyridine) dichlororuthenium (II) hexahydrate) (Ru(bpy)) were synthesized following the reverse microemulsion procedure described by Tan and coworkers (35). These particles are approximately 40 nm in diameter and can be dispersed in de-ionized water. To impart biocompatibility (stability in PBS and other physiological buffers), particles were coated with bovine serum albumin (BSA) by mixing the nanoparticles in aqueous solution with an equal volume of freshly prepared BSA solution (1% weight in water). The mixture was incubated at room temperature for 1 h, after which it was brought to a standard PBS concentration by addition of an appropriate amount of concentrated PBS solution (10× PBS) and left standing overnight at room temperature. Excess BSA was then removed by repeated cycles of centrifugation (12 min at 9,500 rpm), removal of the supernatant and resuspension in PBS (a step involving bath sonication for a few minutes).
Conjugation of the nanoparticles to the recognition domain peptide CGG-(KVSALKE)3, (SEQ ID NO: 44) which contains a three amino acid spacer (CGG) followed by three copies of the KVSALKE (SEQ ID NO: 1) heptad sequence (cc, custom synthesized by the MIT biopolymer lab) was achieved using commercial crosslinking chemistry. Amine groups on the surface of BSA-coated nanoparticles (there are 35 lysine groups accessible at the surface of each BSA molecule) were activated by transferring the nanoparticles to a solution of 10 μM or 100 μM freshly prepared MBS (an amine-to-thiol crosslinker, available from Pierce Biotechnology) in PBS. After 20 min incubation, nanoparticles were washed by centrifugation and resuspension in a conjugation buffer (PBS at pH 7 and 1 mM EDTA). Since the recognition peptide contains a cysteine (chosen for conjugation), reduction of possible disulfide bonds was performed (using TCEP reducing gel, Pierce Biotechnology) before addition to the activated nanoparticles. Conjugation was completed by adding the reduced peptide at a concentration of 10 μM or 100 μM to nanoparticles activated with MBS at the same respective concentrations. After peptide addition, nanoparticles were incubated overnight in a gently rotating tube at 4° C., after which they were washed 3 times in PBS.
HEK 293T cells were transiently transfected with a construct encoding either EGFP or the EGFP-cc construct containing (EVSALEK)4 (SEQ ID NO: 4) fused to the N-terminus of EGFP as described in Example 6. 2×10^6 cells were lysed in 200 μl Lysis buffer (PBS, pH7.4 with 1% Triton-X100) and afterwards diluted with 800 μl PBS to obtain 1 ml of cell lysate with 0.2% Triton-X100. Pull-down experiments were performed by incubating 100 μL of nanoparticles with 900 μL of cell lysate for one hour at 4° C. (with gentle rotation). Particles were then centrifuged (12 min at 9,500 rpm) and the supernatant removed. After brief washing of the pellet with 100 μL of PBS, particles were resuspended by sonication in 50 μL of PBS and the resulting solution analyzed by Western blot using antibodies to EGFP (Covance) according to standard methods.

[6] = system: TRPV3-EGFP-cc; test: pull-down of engineered ion channel subunit TRPV3-EGFP-cc from cell lysate by functionalized nanoparticles, Western blot; type: binding, Mouse
Description: Nanoparticle synthesis and conjugation. These were performed as described in the previous example.
Pull-down experiments. These were performed essentially as described in the previous example except that (i) two different ratios of peptides/nanoparticle (10 μM or 100 μM peptide) were used to test their effect on binding ability; and (ii) lysates were made from cells that expressed engineered ion channel subunits TRPV3-EGFP-cc and TRPV3-EGFP, which are described in Example 6.

Compound: EIAALEK-EIAALEK-EIAALEK (SEQ ID NO: 5) and KIAALKE-KIAALKE-KIAALKE (SEQ ID NO: 6) (chain 1 EIAALEKEIAALEKEIAALEK; chain 2 KIAALKEKIAALKEKIAALKE; Complementary peptides) [IAAL-E3/K3 coiled-coil]
- Kd [1]: 70 nM

Compound: NCCOB(c1ccccc1)c1ccccc1 [2APB]
- reversibility of the 2APB effect [2]: quickly washed out
- response of cells to application of 2APB (whole-cell current) ([2]; voltage ramp −100 mV to +100 mV, compared with TRPV3-cc): responded similarly
- reversibility of the 2APB effect [3]: quickly washed out
- response of cells to application of 2APB (whole-cell current) ([3]; voltage ramp −100 mV to +100 mV, compared with TRPV3-EGFP): responded similarly

Compound: C/C=C(/C)C(=O)O[C@H]1C(C)=C2[C@H]([C@@H]1OC(=O)CCCCCCC)[C@@](C)(OC(C)=O)C[C@H](OC(=O)CCC)[C@@]1(O)[C@H]2OC(=O)[C@@]1(C)O [thapsigargin]
- emission at 620 nm upon addition of compound (calcium signal by FRET) [4]: flashes of light (orange dots) were detected only in the immediate vicinity of the nanoparticles

Compound: NP-cc: BSA-coated Ru(bpy) dye-doped silica nanoparticles (~40 nm) conjugated to recognition peptide CGG-(KVSALKE)3 (SEQ ID NO: 44) (CGGKVSALKEKVSALKEKVSALKE; also: Cys crosslinked to BSA-coated Ru(bpy) dye-doped silica nanoparticles)
- dependence of amount of EGFP-cc pulled down on amount of peptide conjugated ([5]; different amounts of CGG-(KVSALKE)3 conjugated, data not shown): proportional to the number of heptad repeat peptides conjugated to the nanoparticles
- pull-down / binding of EGFP-cc [5]: only NP-cc can pull down EGFP-cc; also recorded: confirm the binding
- pull-down / binding of EGFP-cc ([5]; listed as functionalized nanoparticles): strong band at the position expected for EGFP-cc
- pull-down of EGFP-cc ([5]; nanoparticles conjugated with 10 μm peptide): did not result in detectable pull-down
- pull-down of EGFP-cc ([5]; nanoparticles conjugated with 100 μm peptide): presence of EGFP-cc
- binding to ion channel subunit containing the complementary target domain ([6]; lysate of cells expressing TRPV3-EGFP-cc, anti-EGFP Western blot): confirm the binding
- pull-down of TRPV3-EGFP-cc ([6]; nanoparticles conjugated with 10 μM peptide (lane 6)): only a small amount of pull-down

Source: patent US20060148104A1, “Detection of ion channel or receptor activity” (Massachusetts Institute of Technology, priority 2004, published 2006)
